In patent US20250332266A1, “COMPOUNDS FOR THE DEGRADATION OF EGFR KINASE” (BeiGene Switzerland GmbH, priority 2022, published 2025) one finds ring closure, isolated yield, DC50 and Dmax data, which are given here for eleven molecules.

Where two headings read alike, the source gives them in different places.

For series [1] the following is noted: amide bond, 15-membered ring, 25.0 °C.
The next series addresses T1, EGFR L858R (BaF3-L858R) (Homo sapiens, UniProt P00533, L858R).
T1 construct: host or cells: BaF3
The series is described as follows: EGFR degradation, HTRF total-EGFR assay, BaF3-L858R cells. It counts as cell-based. The settings on record: 16 h treatment. The protocol:
BaF3-L858R (abbv. L858R) cell were purchased from Kangyuan Bochuang Biotechnology (Beijing) Co., Ltd.
(§1) H1975-#8 and BaF3-L858R cells are treated with compounds diluted in 0.1% DMSO cell culture medium on day 2, incubate for 16 h, 37° C., 5% CO2. the final concentration of compounds in all assay starts with 10 uM, 5-fold dilution, total 8 doses were included.
(§2) Total-EGFR cellular kit (64NG1PEH) were used for evaluating EGFR degradation.
(§3) After 16 h treatment, for H1975-#8 cells, add 100 μL HTRF 1× lysis buffer to each well; for BaF3-L858R cells, add 20 μL 4× lysis buffer to each well; seal the plate and incubate 1 hour at room temperature on a plate shaker; Once the cells are lysed, 16 μL of cell lysate are transferred to a PE 384-well HTRF detection plate; 4 μL of pre-mixed HTRF antibodies are added to each well; cover the plate with a plate sealer, spin 1000 rpm for 1 min, incubate overnight at room temperature; read on BMG PheraStar with HTRF protocol (337 nm-665 nm-620 nm).
(§4) The inhibition (degradation) percentage of the compound was calculated by the following equation:
(§5) Inhibition percentage of Compound=100−100×(Signal−low control)/(High control−low control), wherein signal=each test compound group
(§6) High control=Cell group with added DMSO and without compound, indicating microplate readings without EGFR degradation.
(§7) Imax (Dmax) is the maximum percentage of inhibition (degradation).
(§8) The IC50 (DC50) value of a compound can be obtained by fitting the following equation
(§9) Wherein, X and Y are known values, and IC50, Hillslope, Top and Bottom are the parameters obtained by fitting with software. Y is the inhibition percentage (calculated from the equation), X is the concentration of the compound; IC50 is the concentration of the compound when the 50% inhibition is reached. The smaller the IC50 value is, the stronger the inhibitory ability of the compound is. Vice versa, the higher the IC50 value is, the weaker the ability the inhibitory ability of the compound is; Hillslope represents the slope of the fitted curve, generally around 1*; Bottom represents the minimum value of the curve obtained by data fitting, which is generally 0%±20%; Top represents the maximum value of the curve obtained by data fitting, which is generally 100%±20%. The experimental data were fitted by calculating and analyzing with Dotmatics data analysis software.

Series [2] deals with T2, EGFR L858R/C797S (H1975-clone #8) (Homo sapiens, UniProt P00533, C797S/L858R).
T2 construct: expressed in transfected cells; host or cells: H1975 (clone #8), lentiviral transduction, endogenous EGFR knocked out
T2 sequence (P00533 25-1210 C797S/L858R): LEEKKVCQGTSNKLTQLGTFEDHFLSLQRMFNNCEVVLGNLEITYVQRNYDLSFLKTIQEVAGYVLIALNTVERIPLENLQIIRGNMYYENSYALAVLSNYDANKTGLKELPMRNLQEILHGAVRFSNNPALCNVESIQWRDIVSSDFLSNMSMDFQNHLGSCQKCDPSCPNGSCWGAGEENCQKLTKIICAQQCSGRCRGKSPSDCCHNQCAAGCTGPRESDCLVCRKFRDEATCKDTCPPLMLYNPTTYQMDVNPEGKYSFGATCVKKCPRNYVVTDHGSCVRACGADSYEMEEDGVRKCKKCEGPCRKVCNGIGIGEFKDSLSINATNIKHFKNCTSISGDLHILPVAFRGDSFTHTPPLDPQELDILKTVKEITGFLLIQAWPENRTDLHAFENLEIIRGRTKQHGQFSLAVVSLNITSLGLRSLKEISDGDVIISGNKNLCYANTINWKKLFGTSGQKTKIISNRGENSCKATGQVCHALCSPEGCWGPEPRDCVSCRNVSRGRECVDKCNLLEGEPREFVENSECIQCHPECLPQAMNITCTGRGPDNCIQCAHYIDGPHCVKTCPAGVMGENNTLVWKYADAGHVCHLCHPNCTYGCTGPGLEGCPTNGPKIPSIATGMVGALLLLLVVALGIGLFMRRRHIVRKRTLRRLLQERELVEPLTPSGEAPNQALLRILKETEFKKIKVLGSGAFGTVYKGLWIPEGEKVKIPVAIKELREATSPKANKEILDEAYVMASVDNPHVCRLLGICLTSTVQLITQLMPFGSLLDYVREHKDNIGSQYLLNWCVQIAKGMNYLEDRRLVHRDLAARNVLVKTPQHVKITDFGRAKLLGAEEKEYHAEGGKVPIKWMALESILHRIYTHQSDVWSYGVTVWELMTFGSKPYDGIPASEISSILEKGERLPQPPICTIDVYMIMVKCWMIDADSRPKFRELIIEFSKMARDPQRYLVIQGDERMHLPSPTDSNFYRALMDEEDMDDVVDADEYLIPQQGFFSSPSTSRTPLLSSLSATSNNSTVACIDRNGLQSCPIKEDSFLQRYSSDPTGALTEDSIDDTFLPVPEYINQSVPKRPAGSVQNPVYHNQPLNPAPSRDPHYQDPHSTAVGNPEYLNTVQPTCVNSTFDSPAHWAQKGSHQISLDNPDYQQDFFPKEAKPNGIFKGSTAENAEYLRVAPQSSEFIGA
Put plainly: EGFR degradation, HTRF total-EGFR assay, H1975-clone #8 (L858R/C797S). It counts as cell-based. To be noted: 16 h treatment. The method, then: H1975-clone #8 (L858R/C797S): EGFR-L858R/C797S were stably expressed in H1975 cell lines by lentivirus-mediated over-expression, respectively. The EGFR over-expressed cells then underwent knockout, in which the EGFR targeting sgRNA was designed to only target the endogenous EGFR copies and preserve the exogenous EGFR copies. Followed by the knockout, the edited H1975 cells were seeded in 96 well plates at the concentration of 1 cell/well, cultured for about 2 weeks to allow single clones formation. The formed clones were screened by DNA sequencing and whole exon sequencing analysis for the desired edition. H1975-clone #8 were finally confirmed as homozygous L858R/C797S EGFR clones.
as §1, §2, §3, §4, §5, §6, §7, §8, §9

In general, DC50 refers to the concentration at which degradation of the target reaches its halfway point. Read a low DC50 as a more potent degrader. What is called Dmax is the greatest extent of degradation seen. High values mean a fuller loss of target, low ones a partial loss of target.

T1 sequence (P00533 25-1210 L858R): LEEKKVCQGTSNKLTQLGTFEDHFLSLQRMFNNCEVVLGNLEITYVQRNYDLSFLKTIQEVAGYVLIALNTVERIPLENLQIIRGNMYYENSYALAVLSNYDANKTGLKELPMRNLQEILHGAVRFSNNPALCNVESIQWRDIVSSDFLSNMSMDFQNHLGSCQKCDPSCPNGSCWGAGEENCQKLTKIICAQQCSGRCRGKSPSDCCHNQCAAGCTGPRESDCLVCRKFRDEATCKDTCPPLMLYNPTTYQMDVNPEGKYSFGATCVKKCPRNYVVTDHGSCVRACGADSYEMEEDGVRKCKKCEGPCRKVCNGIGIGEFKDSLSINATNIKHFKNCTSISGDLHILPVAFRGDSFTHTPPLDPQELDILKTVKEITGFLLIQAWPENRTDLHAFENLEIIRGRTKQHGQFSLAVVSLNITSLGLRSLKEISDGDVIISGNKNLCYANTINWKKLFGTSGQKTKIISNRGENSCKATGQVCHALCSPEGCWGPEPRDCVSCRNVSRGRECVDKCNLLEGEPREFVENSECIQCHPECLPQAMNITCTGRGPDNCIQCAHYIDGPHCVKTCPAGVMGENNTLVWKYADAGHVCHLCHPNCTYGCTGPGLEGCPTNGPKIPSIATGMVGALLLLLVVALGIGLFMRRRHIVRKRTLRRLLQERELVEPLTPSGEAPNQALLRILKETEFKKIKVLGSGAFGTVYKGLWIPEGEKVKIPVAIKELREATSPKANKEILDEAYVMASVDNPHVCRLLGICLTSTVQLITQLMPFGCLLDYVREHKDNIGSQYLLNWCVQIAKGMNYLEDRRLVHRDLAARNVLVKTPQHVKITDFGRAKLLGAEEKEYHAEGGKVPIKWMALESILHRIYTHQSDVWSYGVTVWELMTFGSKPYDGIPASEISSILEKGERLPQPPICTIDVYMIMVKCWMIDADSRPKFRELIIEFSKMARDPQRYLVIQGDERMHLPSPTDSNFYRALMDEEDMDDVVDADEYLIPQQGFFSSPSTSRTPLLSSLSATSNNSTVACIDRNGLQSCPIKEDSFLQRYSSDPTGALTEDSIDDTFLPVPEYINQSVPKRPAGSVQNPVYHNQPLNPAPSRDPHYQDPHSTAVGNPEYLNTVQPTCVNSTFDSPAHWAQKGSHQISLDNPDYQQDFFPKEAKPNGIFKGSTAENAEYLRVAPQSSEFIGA

For `COC(=O)c1cc(C)nc(-c2cnn(C)c2OCC2CC(Cn3c(=N)[nH]c4ccc(Br)cc43)C2)c1` (stereo not shown), the ring closure, isolated yield in series [1] (the molecule shown is the open-chain precursor, LiHMDS, THF, 116.0 mM) is 74.7%.

In series [1] (the molecule shown is the open-chain precursor, HATU/DIEA, DMF, 70.0 mM), `Cc1cc(C(=O)O)cc(-c2cnn(C)c2OCC2CC(Cn3c(=N)[nH]c4ccc(CN5CCN(C(=O)OC(C)(C)C)CC5)cc43)C2)n1` (stereo not shown) returned a ring closure, isolated yield of 50.1%.

As for `Cc1cc2cc(n1)-c1cnn(C)c1OCC1CC(C1)Cn1c(nc3ccc(N4CCN(C(=O)OC(C)(C)C)CC4=O)cc31)NC2=O`, the ring closure, isolated yield in series [1] (from Cc1cc(C(=O)O)cc(-c2cnn(C)c2OCC2CC(Cn3c(N)nc4ccc(N5CCN(C(=O)OC(C)(C)C)CC5=O)cc43)C2)n1, HATU/DIEA, DCM, 34.0 mM) came out at 51.6%.

As for `Cc1cc2cc(n1)-c1cnn(C)c1OC[C@H]1C[C@@H](CN3/C(=N/C2=O)Nc2ccc(N4C[C@H](C)N(C5CCN(c6ccc(C7CCC(=O)NC7=O)nc6C)CC5)C[C@@H]4C)cc23)C1` (stereo partly drawn) [Example 139, 3-(5-(4-((2S,5S)-4-((7^1s,7^3R,E)-1^1,2^6-dimethyl-3-oxo-5^2,5^3-dihydro-1^1H,5^1H-9-oxa-4-aza-5(2,1)-benzo[d]imidazola-2(2,4)-pyridina-1(4,5)-pyrazola-7(1,3)-cyclobutanacyclononaphane-5^6-yl)-2,5-dimethylpiperazin-1-yl)piperidin-1-yl)-6-methylpyridin-2-yl)piperidine-2,6-dione], on EGFR L858R (BaF3-L858R), the half-maximal degradation concentration (DC50) was found to be 30.7 nM and the maximal degradation (Dmax) worked out at 88.9%.

On EGFR L858R (BaF3-L858R), `CCc1nc(C2CCC(=O)NC2=O)ccc1N1CCC(N2CCN(c3ccc4c(c3)N3C[C@H]5C[C@@H](COc6c(cnn6C)-c6cc(cc(C)n6)C(=O)/N=C/3N4)C5)CC2)CC1` (stereo partly shown) [Example 140, 3-(5-(4-(4-((7^1s,7^3s,E)-1^1,2^6-dimethyl-3-oxo-5^2,5^3-dihydro-1H,5^1H-9-oxa-4-aza-5(2,1)-benzo[d]imidazola-2(2,4)-pyridina-1(4,5)-pyrazola-7(1,3)-cyclobutanacyclononaphane-5^6-yl)piperazin-1-yl)piperidin-1-yl)-6-ethylpyridin-2-yl)piperidine-2,6-dione] returned a half-maximal degradation concentration (DC50) of 37.8 nM and a Dmax of 90.6%.

On EGFR L858R (BaF3-L858R), `Cc1cc2cc(n1)-c1cnn(C)c1OC[C@H]1C[C@@H](CN3/C(=N/C2=O)Nc2ccc(N4CCN(C5CCN(c6c(C)cc(C7CCC(=O)NC7=O)nc6C)CC5)CC4)cc23)C1` (stereo partly shown) [Example 141, 3-(5-(4-(4-((7^1s,7^3s,E)-1^1,2^6-dimethyl-3-oxo-5^2,5^3-dihydro-1^1H,5^1H-9-oxa-4-aza-5(2,1)-benzo[d]imidazola-2(2,4)-pyridina-1(4,5)-pyrazola-7(1,3)-cyclobutanacyclononaphane-5^6-yl)piperazin-1-yl)piperidin-1-yl)-4,6-dimethylpyridin-2-yl)piperidine-2,6-dione] returned a DC50 of 11.9 nM and a maximal degradation (Dmax) of 85.1%. For the same molecule, in series [2], half-maximal degradation (DC50) was put at 0.7 nM and the Dmax stood at 40.4%.

For `Cc1cc2cc(n1)-c1cnn(C)c1OC[C@H]1C[C@@H](CN3/C(=N/C2=O)Nc2ccc(N4CCN(C5CCN(c6cc(F)c(C7CCC(=O)NC7=O)nc6C)CC5)CC4)cc23)C1` (stereo partly shown) [Example 142, 3-(5-(4-(4-((7^1s,7^3s,E)-1^1,2^6-dimethyl-3-oxo-5^2,5^3-dihydro-1^1H,5^1H-9-oxa-4-aza-5(2,1)-benzo[d]imidazola-2(2,4)-pyridina-1(4,5)-pyrazola-7(1,3)-cyclobutanacyclononaphane-5^6-yl)piperazin-1-yl)piperidin-1-yl)-3-fluoro-6-methylpyridin-2-yl)piperidine-2,6-dione], at EGFR L858R (BaF3-L858R), the half-maximal degradation concentration (DC50) was determined as 52.3 nM and the Dmax worked out at 76.2%.

For `CCc1cc(C2CCC(=O)NC2=O)ncc1N1CCC(N2CC(N3CCN(c4ccc5c(c4)N4C[C@H]6C[C@@H](COc7c(cnn7C)-c7cc(cc(C)n7)C(=O)/N=C/4N5)C6)CC3)C2)CC1` (stereo partly shown) [Example 143, 3-(5-(4-(3-(4-((7^1s,7^3s,E)-1^1,2^6-dimethyl-3-oxo-5^2,5^3-dihydro-1^1H,5^1H-9-oxa-4-aza-5(2,1)-benzo[d]imidazola-2(2,4)-pyridina-1(4,5)-pyrazola-7(1,3)-cyclobutanacyclononaphane-5^6-yl)piperazin-1-yl)azetidin-1-yl)piperidin-1-yl)-4-ethylpyridin-2-yl)piperidine-2,6-dione], at EGFR L858R (BaF3-L858R), the half-maximal degradation concentration (DC50) stood at 8.5 nM and the greatest degradation seen (Dmax) is 75.8%.

At EGFR L858R (BaF3-L858R), `Cc1cc2cc(n1)-c1cnn(C)c1OC[C@H]1C[C@@H](CN3/C(=N/C2=O)Nc2ccc(N4CCN(C5CN(C6CCN(c7cc(F)c([C@H]8CCC(=O)NC8=O)c(F)c7)CC6)C5)C[C@H]4C)cc23)C1` [Example 148, (R)-3-(4-(4-(3-((R)-4-((7^1s,7^3S,E)-1^1,2^6-dimethyl-3-oxo-5^2,5^3-dihydro-1^1H,5^1H-9-oxa-4-aza-5(2,1)-benzo[d]imidazola-2(2,4)-pyridina-1(4,5)-pyrazola-7(1,3)-cyclobutanacyclononaphane-5^6-yl)-3-methylpiperazin-1-yl)azetidin-1-yl)piperidin-1-yl)-2,6-difluorophenyl)piperidine-2,6-dione] displayed a DC50 of 3 nM and a Dmax of 80%.

At EGFR L858R (BaF3-L858R), `CCc1nc(C2CCC(=O)NC2=O)ccc1N1CCC(N2CC(N3CCN(c4ccc5c(c4)N4C[C@H]6C[C@@H](COc7c(cnn7C)-c7cc(cc(C)n7)C(=O)/N=C/4N5)C6)CC3)C2)CC1` (stereo partly shown) [Example 149, 3-(5-(4-(3-(4-((7^1s,7^3s,E)-1^1,2^6-dimethyl-3-oxo-5^2,5^3-dihydro-1^1H,5^1H-9-oxa-4-aza-5(2,1)-benzo[d]imidazola-2(2,4)-pyridina-1(4,5)-pyrazola-7(1,3)-cyclobutanacyclononaphane-5^6-yl)piperazin-1-yl)azetidin-1-yl)piperidin-1-yl)-6-ethylpyridin-2-yl)piperidine-2,6-dione] had a 50% degradation concentration (DC50) of 16 nM and a Dmax of 71.1%. Further, in series [2], the 50% degradation concentration (DC50) was found to be 3.3 nM and the Dmax was found to be 52.2%.

`Cc1cc2cc(n1)-c1cnn(C)c1OC[C@H]1C[C@@H](CN3/C(=N/C2=O)Nc2ccc(N4CCN(C5CN(CCc6c(C)cc(C7CCC(=O)NC7=O)nc6C)C5)CC4)cc23)C1` (stereo partly shown) [Example 150, 3-(5-(2-(3-(4-((7^1s,7^3s,E)-1^1,2^6-dimethyl-3-oxo-5^2,5^3-dihydro-1^1H,5^1H-9-oxa-4-aza-5(2,1)-benzo[d]imidazola-2(2,4)-pyridina-1(4,5)-pyrazola-7(1,3)-cyclobutanacyclononaphane-5^6-yl)piperazin-1-yl)azetidin-1-yl)ethyl)-4,6-dimethylpyridin-2-yl)piperidine-2,6-dione]: the half-maximal degradation concentration (DC50) at EGFR L858R (BaF3-L858R) was found to be 11.9 nM; in series [2], 3.5 nM. For the same molecule, the maximal degradation (Dmax) at EGFR L858R (BaF3-L858R) was found to be 73.5%; in series [2], 51.9%.
